Tested on: engineered E. coli
Experiment: n-butyraldehyde toxicity incubation test in sealed tube, colony forming units versus time
Type: cell-based
Protocol: In all cases, including the case in which no addition is made, the number of colony forming units tends to a minimum value (e.g., cells no longer viable) after about 24 hours.

In the case of `CCCC=O` [n-butyraldehyde], the “change in colony forming units per μL” value (1.0 g/L n-butyraldehyde added, a little after 5 hours) is reported as “net increase” and the “change in colony forming units per μL” value (1.2 g/L and above n-butyraldehyde added, at 4.5 hours) is reported as “net decrease”.

From patent US9777297B2 (EASEL BIOTECHNOLOGIES, LLC, priority 2011, dated 2017)
